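Protocol summary: plate cells (96-well), add compound at 5 concentrations, incubate 48 h, interpolate endpoints linearly. The concentration for full growth arrest is given as TGI.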
Columns and labels:
Experiment in all cases: NCI tumour cell line growth inhibition, 48 h
SK-MEL-5 melanoma = system: SK-MEL-5 melanoma
UO-31 renal = system: UO-31 renal
T-47D breast = system: T-47D breast
OVCAR-5 ovarian = system: OVCAR-5 ovarian
K-562 leukemia = system: K-562 leukemia
M14 melanoma = system: M14 melanoma
MDA-MB-231 breast = system: MDA-MB-231 breast
HS 578T breast = system: HS 578T breast
RXF 393 renal = system: RXF 393 renal
HCC-2998 colon = system: HCC-2998 colon
HOP-62 NSCLC = system: HOP-62 NSCLC
DU-145 prostate = system: DU-145 prostate
SK-OV-3 ovarian = system: SK-OV-3 ovarian
HCT-15 colon = system: HCT-15 colon
COLO 205 colon = system: COLO 205 colon
OVCAR-8 ovarian = system: OVCAR-8 ovarian
HCT-116 colon = system: HCT-116 colon
SF-295 CNS = system: SF-295 CNS

Row | Compound | TGI (SK-MEL-5 melanoma) [µM] | TGI (UO-31 renal) [µM] | TGI (T-47D breast) [µM] | TGI (OVCAR-5 ovarian) [µM] | TGI (K-562 leukemia) [µM] | TGI (M14 melanoma) [µM] | TGI (MDA-MB-231 breast) [µM] | TGI (HS 578T breast) [µM] | TGI (RXF 393 renal) [µM] | TGI (HCC-2998 colon) [µM] | TGI (HOP-62 NSCLC) [µM] | TGI (DU-145 prostate) [µM] | TGI (SK-OV-3 ovarian) [µM] | TGI (HCT-15 colon) [µM] | TGI (COLO 205 colon) [µM] | TGI (OVCAR-8 ovarian) [µM] | TGI (HCT-116 colon) [µM] | TGI (SF-295 CNS) [µM]
1 | COC(=O)/C=C1/OC(c2ccccc2)=CC1=O | 51.3 | 31.7 | 49.9 | 36.9 | 44.6 | 51.5 | 31.4 | 65.9 | 27.7 | 33.5 | 44.7 | 19.4 | > 94.4 | 30.1 | 29.5 | 35.8 | 33.2 | 21.8
2 | Cc1cc2c(cc1-c1cc3c(cc1C)C(C(C)C)=C(O)C(=O)/C3=C\Nc1cccc3c(N)cccc13)/C(=C/Nc1cccc3c(N)cccc13)C(=O)C(O)=C2C(C)C | > 100 | > 100 | > 100 | > 100 | > 100 | > 100 | > 100 | > 100 | > 100 | > 100 | > 100 | > 100 | > 100 | > 100 | > 100 | > 100 | > 100 | > 100
3 | Nc1nc(Cl)c(N)c(NCC2(CO)CC(O)C2)n1 (configuration not stated) | > 100 | > 100 | > 100 | > 100 | > 100 | > 100 | > 100 | > 100 | > 100 | > 100 | > 100 | > 100 | > 100 | > 100 | > 100 | > 100 | > 100 | > 100
4 | N#Cc1c(-c2ccccc2)cc(Nc2ccc(F)cc2)n2c1nc1ccccc12 | 2.73 | 6.66 | 19 | > 29.2 | > 100 | > 100 | 65.2 | 4.68 | > 31.4 | > 100 | 40.8 | > 100 | 8.71 | > 30.4 | 2.97 | > 32.7 | 6.06 | > 29.6

— PubChem BioAssay (NCI)
